Experimental data from ChEMBL document CHEMBL1201862, “PubChem BioAssay data set” (2004).
Active and inactive are the calls of the source. Rule as the data show it: actives have a measured IC50 and inactives only a lower limit.

Molecular target: Envelope glycoprotein gp160 (Human immunodeficiency virus 1, UniProt Q6QLK5)
Test: cell-free HIV fusion peptide-binding blockers – biochemical, uHTS, fluorescence dequenching, […] (AID 1986)

Chain of Envelope glycoprotein gp160 (Q6QLK5 whole entry, the tested form may be a part): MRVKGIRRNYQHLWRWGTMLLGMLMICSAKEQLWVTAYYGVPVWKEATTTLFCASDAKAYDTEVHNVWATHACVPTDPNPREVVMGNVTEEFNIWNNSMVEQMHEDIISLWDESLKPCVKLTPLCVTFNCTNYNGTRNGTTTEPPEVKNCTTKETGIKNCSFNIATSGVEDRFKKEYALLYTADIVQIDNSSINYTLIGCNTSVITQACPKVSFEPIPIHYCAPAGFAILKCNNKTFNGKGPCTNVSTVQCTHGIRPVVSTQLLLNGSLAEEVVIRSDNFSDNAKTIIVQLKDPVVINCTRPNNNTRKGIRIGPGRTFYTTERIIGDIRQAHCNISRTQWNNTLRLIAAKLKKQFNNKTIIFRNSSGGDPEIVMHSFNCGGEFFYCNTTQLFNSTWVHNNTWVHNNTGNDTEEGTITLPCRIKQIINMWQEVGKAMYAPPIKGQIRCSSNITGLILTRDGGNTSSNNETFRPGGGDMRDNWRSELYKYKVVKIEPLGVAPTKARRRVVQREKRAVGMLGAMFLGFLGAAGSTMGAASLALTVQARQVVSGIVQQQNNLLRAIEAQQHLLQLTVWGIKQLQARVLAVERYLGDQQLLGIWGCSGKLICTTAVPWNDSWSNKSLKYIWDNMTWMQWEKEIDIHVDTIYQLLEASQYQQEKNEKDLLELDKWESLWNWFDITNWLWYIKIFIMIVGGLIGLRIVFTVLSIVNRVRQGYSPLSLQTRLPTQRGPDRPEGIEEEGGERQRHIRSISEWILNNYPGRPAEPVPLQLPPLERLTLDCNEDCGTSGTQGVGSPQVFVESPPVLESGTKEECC

SMILES | IC50
COc1cc(OC)c2c(O)c3c(c(-c4c5c(c(O)c6c(OC)cc(OC)cc46)CO[C@@H](C)[C@H]5O)c2c1)[C@H](O)[C@H](C)OC3 | 10.1 µM (active)
O=C(N/N=C/c1cc(Cl)cc([N+](=O)[O-])c1O)c1ccccc1NS(=O)(=O)c1cccs1 | 13.6 µM (active)
